These results are taken from patent publication US11174253B2, “Compound and pharmaceutical composition containing the same” (ALPHALA CO., LTD., priority 2017, dated 2021).

One may read the viability as a read-out of living cells in per cent, often relative to untreated cells. The GI50 is the concentration giving 50% growth inhibition. As usually defined, the LC50 is the concentration lethal to half of the exposed cells or organisms.

What all share (type): cell-based
The test system of assay [1] is hepatocellular carcinoma cell line Hep3B. Nature of the assay: Growth inhibition of Hep3B cells, 48 hr treatment, Hoechst 33342 nucleus count (GE InCell 2200). The note with it: Homo sapiens, Table 6, ratio of number of tumor cells treated with 10 μM compound to non-treated cells. The gist of the method: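 Compound exposure lasted 48 hr at 37° C, 5% CO2. Surviving nuclei were counted after Hoechst 33342 staining, and survival was expressed as the treated/non-treated cell number ratio, including the ratio at 10 μM compound.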

Assay [2] relates to NCI-H460 human lung cancer cell line. Nature of the assay: MTS cell viability assay (NCI-60 methodology), GI50/LC50, NCI-H460. The note with it: 48 h, NCI-H460 cells, 2 days incubation with compound. The gist of the method:
(§1)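 Cells were plated 24 h before treatment, and a time-zero plate was read by MTS. Five 2-fold dilutions plus DMSO were then added for 48 h, and viability was measured by MTS. GI50 is from [(Ti−Tz)/(C−Tz)]×100=50 and LC50 from [(Ti−Tz)/Tz]×100=−50.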

The subject of assay [3] is Hep3B hepatocellular carcinoma cell line. Nature of the assay: MTS cell viability assay (NCI-60 methodology), GI50/LC50, Hep3B. Conditions: Homo sapiens, 48 h, Hep3B cells, 2 days incubation with compound. A digest of the protocol:
as §1
(Tetrazolium dyes change colour on reduction, which living cells bring about.)

Assay [4] deals with SW480 colon adenocarcinoma cell line. Briefly: MTS cell viability assay (NCI-60 methodology), GI50/LC50, SW480. Conditions: Homo sapiens, 48 h, SW480 cells, 2 days incubation with compound. A digest of the protocol: as §1

Each structure is given as a SMILES string.

For `CCCCOc1ccc(-c2nc(NC(=O)c3ccc([N+](=O)[O-])s3)sc2-c2ccc(F)cc2)cc1` [Compound 6-18, N-(4-(4-butoxyphenyl)-5-(4-fluorophenyl)thiazol-2-yl)-5-nitrothiophene-2-carboxamide], the viability at 10 µM in assay [1] was determined as 26%. Further, in assay [2], the GI50 was determined as 2010 nM and the LC50 (concentration giving 50% net cell loss versus time zero, NCI-60 definition) worked out at 8260 nM. Besides, in assay [3], the GI50 was 1380 nM and the LC50 amounted to 2170 nM. In addition, the GI50 in assay [4] was found to be 6490 nM.

Take `CC(C)(C)c1ccc(-c2nc(NC(=O)c3ccc([N+](=O)[O-])s3)sc2-c2ccccc2)cc1` [Compound 6-21, N-(4-(4-(tert-butyl)phenyl)-5-phenylthiazol-2-yl)-5-nitrothiophene-2-carboxamide]: the viability at 10 µM in assay [1] amounted to 29%. In assay [2], the GI50 came out at 810 nM and the LC50 (concentration giving 50% net cell loss versus time zero, NCI-60 definition) stood at 1470 nM. In addition, in assay [3], the GI50 came to 670 nM and the LC50 is 1350 nM. Moreover, in assay [4], the GI50 came to 490 nM and the LC50 (NCI-60 lethal concentration, 50% net cell loss vs time zero) was 1470 nM.

As for `CC(C)(C)c1ccc(-c2nc(NC(=O)c3ccc([N+](=O)[O-])s3)sc2-c2ccc(F)cc2)cc1` [Compound 6-24, N-(4-(4-(tert-butyl)phenyl)-5-(4-fluorophenyl)thiazol-2-yl)-5-nitrothiophene-2-carboxamide], in assay [1], the viability at 10 µM worked out at 30%. Further, in assay [2], the GI50 stood at 1560 nM and the LC50 (concentration giving 50% net cell loss versus time zero, NCI-60 definition) was found to be 4220 nM. In assay [3], the GI50 was 990 nM and the LC50 was found to be 1930 nM. In addition, in assay [4], the GI50 amounted to 1370 nM and the LC50 (NCI-60 lethal concentration, 50% net cell loss vs time zero) came to 3570 nM.

Consider `CCOc1ccc(-c2nc(NC(=O)c3ccc([N+](=O)[O-])s3)sc2Cc2ccccc2)cc1` [Compound 6-34, N-(5-benzyl-4-(4-ethoxyphenyl)thiazol-2-yl)-5-nitrothiophene-2-carboxamide], for which, in assay [1], the viability at 10 µM was found to be 44%. Also, the results for the GI50 in assay [2], in assay [3] and in assay [4] were 1400 nM, 1010 nM and 2510 nM, respectively. Moreover, the LC50 in assay [3] was found to be 7530 nM.

Consider `CC(C)(C)c1ccc(-c2nc(NC(=O)c3ccc([N+](=O)[O-])s3)sc2-c2cc(F)cc(F)c2)cc1` [Compound 6-38, N-(4-(4-(tert-butyl)phenyl)-5-(3,5-difluorophenyl)thiazol-2-yl)-5-nitrothiophene-2-carboxamide], for which the viability at 10 µM in assay [1] came to 30%. Further, in assay [2], the GI50 is 700 nM and the LC50 (concentration giving 50% net cell loss versus time zero, NCI-60 definition) was found to be 1650 nM. In assay [3], the GI50 was 630 nM and the LC50 was 1610 nM. Further, in assay [4], the GI50 stood at 740 nM and the LC50 (NCI-60 lethal concentration, 50% net cell loss vs time zero) was 4060 nM.

With `CCC(C)(C)c1ccc(-c2nc(NC(=O)c3ccc([N+](=O)[O-])s3)sc2-c2ccc(F)cc2)cc1` [Compound 6-40, N-(5-(4-fluorophenyl)-4-(4-(tert-pentyl)phenyl)thiazol-2-yl)-5-nitrothiophene-2-carboxamide], the viability at 10 µM in assay [1] was determined as 25%. In assay [2], the GI50 was found to be 1880 nM and the LC50 (concentration giving 50% net cell loss versus time zero, NCI-60 definition) stood at 3610 nM. Also, in assay [3], the GI50 amounted to 540 nM and the LC50 is 3030 nM. Further, in assay [4], the GI50 turned out to be 920 nM and the LC50 (NCI-60 lethal concentration, 50% net cell loss vs time zero) was determined as 1350 nM.

As for `CC(C)(C)c1ccc(-c2nc(NC(=O)c3ccc([N+](=O)[O-])s3)sc2-c2ccc(F)c(F)c2)cc1` [Compound 6-46, N-(4-(4-(tert-butyl)phenyl)-5-(3,4-difluorophenyl)thiazol-2-yl)-5-nitrothiophene-2-carboxamide], in assay [1], the viability at 10 µM is 31%. In assay [2], the GI50 turned out to be 630 nM and the LC50 (concentration giving 50% net cell loss versus time zero, NCI-60 definition) came to 900 nM. Further, in assay [3], the GI50 was 590 nM and the LC50 amounted to 1100 nM. In assay [4], the GI50 stood at 680 nM and the LC50 (NCI-60 lethal concentration, 50% net cell loss vs time zero) is 1330 nM.

With `CCC(C)(C)c1ccc(-c2nc(NC(=O)c3ccc([N+](=O)[O-])s3)sc2-c2ccc(F)cc2F)cc1` [Compound 6-47, N-(5-(2,4-difluorophenyl)-4-(4-(tert-pentyl)phenyl)thiazol-2-yl)-5-nitrothiophene-2-carboxamide], the viability at 10 µM in assay [1] was determined as 33%. In addition, in assay [2], the GI50 is 580 nM and the LC50 (concentration giving 50% net cell loss versus time zero, NCI-60 definition) came to 930 nM. In assay [3], the GI50 amounted to 590 nM and the LC50 was 660 nM. For the same compound, in assay [4], the GI50 was 640 nM and the LC50 (NCI-60 lethal concentration, 50% net cell loss vs time zero) amounted to 1390 nM.

With `CC(C)(C)c1ccc(-c2nc(NC(=O)c3ccc([N+](=O)[O-])s3)sc2-c2ccc(Br)cc2)cc1` [Compound 6-53, N-(5-(4-bromophenyl)-4-(4-(tert-butyl)phenyl)thiazol-2-yl)-5-nitrothiophene-2-carboxamide], in assay [1], the viability at 10 µM came to 24%. Moreover, in assay [2], the GI50 is 710 nM and the LC50 (concentration giving 50% net cell loss versus time zero, NCI-60 definition) is 1370 nM. Besides, in assay [3], the GI50 came out at 540 nM and the LC50 was 620 nM. In assay [4], the GI50 was 620 nM and the LC50 (NCI-60 lethal concentration, 50% net cell loss vs time zero) came to 990 nM.

Take `COc1ccc(-c2sc(NC(=O)c3ccc([N+](=O)[O-])s3)nc2-c2ccc(C(C)(C)C)cc2)cc1` [Compound 6-54, N-(4-(4-(tert-butyl)phenyl)-5-(4-methoxyphenyl)thiazol-2-yl)-5-nitrothiophene-2-carboxamide]: in assay [1], the viability at 10 µM turned out to be 25%. Besides, in assay [2], the GI50 was 440 nM and the LC50 (concentration giving 50% net cell loss versus time zero, NCI-60 definition) came out at 1590 nM. For the same compound, in assay [3], the GI50 is 610 nM and the LC50 worked out at 710 nM. In assay [4], the GI50 was 1380 nM and the LC50 (NCI-60 lethal concentration, 50% net cell loss vs time zero) was 2350 nM.

Take `CC(C)(C)c1ccc(-c2nc(NC(=O)c3ccc([N+](=O)[O-])s3)sc2-c2ccc(Cl)cc2)cc1` [Compound 6-59, N-(4-(4-(tert-butyl)phenyl)-5-(4-chlorophenyl)thiazol-2-yl)-5-nitrothiophene-2-carboxamide]: the viability at 10 µM in assay [1] was 27%. Moreover, in assay [2], the GI50 was 700 nM and the LC50 (concentration giving 50% net cell loss versus time zero, NCI-60 definition) turned out to be 1280 nM. In addition, in assay [3], the GI50 was 600 nM and the LC50 came out at 640 nM. In assay [4], the GI50 was determined as 750 nM and the LC50 (NCI-60 lethal concentration, 50% net cell loss vs time zero) worked out at 1620 nM.
